Patent US9029078B2, “Perfusion and/or preservation solution for organs” (Philadelphia College of Osteopathic Medicine, priority 2005, dated 2015)
“Also recorded” adds a separate entry of the source. Where no end group is shown, it is not given here.

Columns and labels:
[1] = system: isolated perfused rat hearts (I/R+PMNs); experiment: Isolated perfused rat heart, 20 min ischemia / 45 min reperfusion with PMNs: cardiac contractile function (LVDP, +dP/dtmax, LVEDP); details: for LVDP of initial baseline (initial depression): 15 min into reperfusion; for Protective effect on +dP/dt max in the presence of L-NAME (in words) / Protective effect on LVDP in the presence of L-NAME (in words): with L-NAME; for PMN-induced contractile dysfunction / decrease in +dP/dt max (in words): final +dP/dt max after reperfusion; for PMN-induced contractile dysfunction / decrease in +dP/dt max (in words) / PMN-induced contractile dysfunction / decrease in LVDP (in words): vs I/R+PMNs; for PMN-induced contractile dysfunction / decrease in LVDP (in words): final LVDP, 45 min post reperfusion
Experimental: (§1) Data were recorded every 5 min for 45 min post-reperfusion. After each experiment, the left ventricle was isolated, fixed in 4% paraformaldehyde and stored at 4° C. for later histological analysis.

[2] = system: rat aortic endothelium; experiment: Measurement of NO release from rat aortic segments; details: for Increase in NO release above basal: basal 1.85±0.18; for Induced production of NO after treating the endothelium with L-NAME: L-NAME 400 μM
Text: FIG. 5. Measurement of NO release from rat aortic segments. […] All values are expressed as means± SEM. Numbers at bottom of bars are numbers of separate experiments per group. *p<0.05, **p<0.01, from basal values. FIG. 10. Measurement of NO release from rat aortic segments. […] All values are expressed as means± SEM. Numbers at bottom of bars are numbers of separate experiments per group. *p<0.05, **p<0.01, from basal values. FIG. 17. Measurement of NO release from rat aortic segments. […] All values are expressed as means± SEM. Numbers at bottom of bars are numbers of separate experiments per group. **p<0.01, from basal values. PMN adherence to coronary vascular endothelium was also evaluated within the assessment of total intravascular and infiltrated PMNs. […] NO release from rat aortic endothelium was measured to determine if PKC ζ peptide inhibitor provides cardioprotection by a mechanism involving increased endothelial NO release. […] The eNOS inhibitor, L-NAME, was used as another control in order to decrease basal release of NO to zero.

[3] = system: fMLP-stimulated rat PMNs; experiment: Superoxide release from fMLP-stimulated rat PMNs; format: cell-based; details: for Superoxide release (absorbance): fMLP-stimulated PMNs alone 0.13±0.01
Experimental: FIG. 11. Superoxide release from rat PMNs. Superoxide release was measured from 5×10^6 PMNs after formyl-methionyl-leucyl-phenylalanine (fMLP) (200 nM) stimulation. SOD (10 μg/ml) was employed as a positive control. The change in absorbance (Δ) was measured 90 sec after fMLP addition (peak response). […] All values are means± SEM. Numbers at bottom of bars are numbers of separate experiments per group.

[4] = system: PMN infiltration into the myocardium of isolated perfused rat hearts; experiment: Histological assessment of total intravascular and infiltrated PMNs in post-reperfusion cardiac tissue
Experimental: FIG. 4a. Histological assessment of total intravascular and infiltrated PMNs in isolated perfused rat heart samples taken from 3 rats per group and 10 areas per heart. […] Hatched boxes represent non-PMN perfused hearts and black boxes represent PMN-perfused hearts. **P<0.01, from I/R+PMNs.
as §1
The cardiac injury associated with I/R in this model was closely correlated with the substantial number of PMNs infiltrating the myocardium within the 45 min reperfusion period. During reperfusion, a significant number of PMNs transmigrated into the myocardium, increasing from less than 25 PMN/mm^2 in Sham I/R hearts to more than 180 PMN/mm^2 in I/R+PMN hearts at the end of the reperfusion period (FIG. 4a).

[5] = system: PMN adherence to coronary vascular endothelium; experiment: Histological assessment of intravascular PMNs adhering to the coronary vasculature; design: species or system rat
Experimental: FIG. 4b. Histological assessment of intravascular PMNs that adhered to the coronary vasculature in isolated perfused rat heart samples taken from 3 rats per group
and 10 areas per heart. […] Hatched boxes represent non-PMN perfused hearts and black boxes represent PMN-perfused hearts. All values are mean numbers of PMNs/mm^2 of heart area± SEM.
PMN adherence to coronary vascular endothelium was also evaluated within the assessment of total intravascular and infiltrated PMNs. […] NO release from rat aortic endothelium was measured to determine if PKC ζ peptide inhibitor provides cardioprotection by a mechanism involving increased endothelial NO release. […] The eNOS inhibitor, L-NAME, was used as another control in order to decrease basal release of NO to zero.

[6] = system: PMA-stimulated rat PMNs; experiment: Superoxide release from PMA-stimulated rat PMNs; format: cell-based; details: for Superoxide release vs PMA-stimulated rat PMNs (in words): 1 μM; for Superoxide release after PMA (15 nM) stimulation (in words): 360 sec after PMA; for Superoxide release (absorbance): PMA-stimulated PMNs alone 0.49±0.03
Experimental: (§2) FIG. 6. Superoxide release from rat PMNs. Superoxide release was measured from 5×10^6 PMNs after phorbol-12-myristate-13-acetate (PMA) (15 nM) stimulation. Superoxide dismutase (SOD) (10 μg/ml) was employed as a positive control. The change in absorbance (Δ) was measured 360 sec after PMA addition (peak response). […] All values are means± SEM. Numbers at bottom of bars show the numbers of separate experiments per group.
as §2, with “18.” for “6.”, “PMA” for “phorbol-12-myristate-13-acetate (PMA)”, “SOD” for “Superoxide dismutase (SOD)”
FIG. 22. Superoxide release from rat PMNs. Superoxide release was measured from 5×10^6 PMNs after PMA (15 nM) stimulation. The change in absorbance (Δ) was measured 360 sec after PMA addition (peak response). […] All values are means± SEM. Numbers at bottom of bars show the numbers of separate experiments per group.

[7] = I/R+PMN hearts, 1 μM, 45 min post-reperfusion
[8] = I/R+PMN hearts, 5 μM, 45 min post-reperfusion
[9] = I/R+PMN hearts, 10 μM + L-NAME 50 μM, 45 min post-reperfusion
[10] = I/R+PMN hearts, 10 μM, 45 min post-reperfusion
[11] = I/R+PMN hearts, 2.5 μM, 45 min post-reperfusion
[12] = I/R+PMN hearts, 5 μM + L-NAME 50 μM, 45 min post-reperfusion

Compound | LVDP of I/R+PMN group compared to treated I/R+PMN group (time course) ([1]; 10 μM, reperfusion 0 to 45 min) | +dP/dtmax recovered to, of initial baseline [1, 7] [%] | LVDP recovered to, of initial baseline [1, 7] [%] | +dP/dtmax recovered to, of initial baseline [1, 8] [%] | LVDP recovered to, of initial baseline [1, 8] [%] | LVDP of initial baseline (initial depression) ([1]; I/R+PMN hearts, 10 μM) [%] | +dP/dtmax recovered to, of initial baseline [1, 10] [%] | LVDP recovered to, of initial baseline [1, 10] [%] | Protective effect on +dP/dt max in the presence of L-NAME (in words) ([1]; I/R+PMN hearts) | Protective effect on LVDP in the presence of L-NAME (in words) ([1]; I/R+PMN hearts) | PMN-induced contractile dysfunction / decrease in +dP/dt max (in words) [1] | PMN-induced contractile dysfunction / decrease in LVDP (in words) [1] | Endothelial NO release vs basal NO release (in words) [2] | Induced production of NO after treating the endothelium with L-NAME [2] | Total intravascular and infiltrated PMNs vs I/R+PMNs (in words) ([4]; I/R+PMN hearts) | Superoxide release vs PMA-stimulated rat PMNs (in words) [6] | Superoxide release after PMA (15 nM) stimulation (in words) [6] | other results
PKC βII peptide inhibitor: peptide inhibitor of protein kinase C beta II; preferred sequence SEQ ID NO: 1, preferably myristoylated (SLNPEWNET; not fully specified; listed as Homo sapiens) | significant and sustained reduction | 53±6 | 57±4 | 63±7 | 69±7 | 61±10 | 79±10 | 82±9 | blocked | significantly blocked | attenuated | attenuated | significantly increased; also recorded: significantly more NO | completely inhibited |  |  |  | +dP/dtmax of initial baseline [1, 9]: 53±5%; LVDP of initial baseline [1, 9]: 56±2%; Increase in NO release above basal ([2]; 1 μM): 0.75±0.19 pmoles NO/mg tissue; Increase in NO release above basal ([2]; 2.5 μM): 1.91±0.44 pmoles NO/mg tissue; Increase in NO release above basal ([2]; 5 μM): 2.54±0.29 pmoles NO/mg tissue; Increase in NO release above basal ([2]; 10 μM): 3.49±0.62 pmoles NO/mg tissue; Inhibition of superoxide (in words) ([3]; 1 μM): no significant inhibition; Superoxide release (absorbance) ([3]; 5 μM): 0.05±0.009; Superoxide release (absorbance) ([3]; 10 μM): 0.02±0.004; Superoxide release (absorbance) ([3]; 20 μM): 0.02±0.007; Superoxide release after fMLP (200 nM) stimulation (in words) ([3]; 5, 10 and 20 μM, 90 sec after fMLP): significantly inhibited
CC(=O)OCC[N+](C)(C)C [Acetylcholine, reference compound] |  |  |  |  |  |  |  |  |  |  |  |  |  |  |  |  |  | Increase in NO release compared to basal NO release ([2]; 200 nM (positive control)): 67±4%; Increase in NO release above basal ([2]; 500 nM (positive control)): 3.75±0.58 pmoles NO/mg tissue
PKC ζ peptide inhibitor: peptide inhibitor of protein kinase C zeta; preferred sequence SEQ ID NO: 2, preferably myristoylated; from Genemed Synthesis (SIYRRGARRWRKL; not fully specified; listed as Homo sapiens) |  | 46±6 | 57±10 | 76±5 | 84±4 |  |  |  | blocked | significantly blocked | attenuated | attenuated | significantly increased | completely inhibited | significantly attenuated | no difference | significantly inhibited | LVDP of I/R+PMN group compared to treated I/R+PMN group (time course) ([1]; 5 μM, reperfusion 0 to 45 min): significant and sustained reduction; +dP/dtmax recovered to, of initial baseline [1, 11]: 75±5%; LVDP recovered to, of initial baseline [1, 11]: 83±4%; +dP/dtmax recovered to, of initial baseline [1, 12]: 54±9%; LVDP recovered to, of initial baseline [1, 12]: 58±7%; Lowest effective dose ([1]; I/R+PMN hearts, LVDP and +dP/dtmax): 2.5 µM; Infiltrated PMNs compared to 1 μM treated hearts ([4]; 2.5 and 5 μM treated hearts): significantly fewer infiltrated PMNs; Reduction in PMN infiltration into post-reperfused cardiac tissue ([4]; I/R+PMN hearts, 1 μM): 20±6%; Reduction in PMN infiltration into post-reperfused cardiac tissue ([4]; I/R+PMN hearts, 2.5 μM): 46±4%; Reduction in PMN infiltration into post-reperfused cardiac tissue ([4]; I/R+PMN hearts, 5 μM): 48±3%; Effect on PMN infiltration in the presence of L-NAME (in words) ([4]; I/R+PMN hearts, with L-NAME): blocked; Reduction in adherent PMNs to the coronary endothelium (not significant, p<0.06) ([5]; I/R+PMN hearts, 5 μM): 43±10%; NO release compared to basal NO release ([2]; 1 μM): not significantly different; Increase in NO release compared to basal NO release ([2]; 2.5 μM): 47±2%; Increase in NO release compared to basal NO release ([2]; 5 μM): 54±5%; NO release from endothelium removed (denuded) rat aortic segments ([2]; 5 μM, denuded segments): not different from L-NAME-treated segments; Increase in NO release compared to basal NO release ([2]; 15 μM): 91±15%; Inhibition of PMN superoxide release ([6]; 15 μM): 82%; Inhibition of superoxide release ([6]; 2.5-15 μM, PMA 15 nM): 33-82%
PKC δ peptide activator: peptide activator of protein kinase C delta; preferred sequence SEQ ID NO: 3, preferably myristoylated (MRAAEDPM; not fully specified; listed as Homo sapiens) | significant and sustained reduction | 51±5 | 60±13 | 67±7 | 80±9 | 58±8 | 79±5 | 83±3 |  |  | attenuated | attenuated |  |  | attenuated | no significant inhibition | significantly inhibited | LVEDP of I/R+PMN group compared to treated I/R+PMN group (time course) ([1]; 10 μM, reperfusion 0 to 45 min): significant and sustained elevation; PMNs adhering to the coronary vasculature vs I/R+PMN hearts (in words) [5]: attenuated; Superoxide release (absorbance) ([6]; 5 μM): 0.32±0.03; Superoxide release (absorbance) ([6]; 10 μM): 0.32±0.02
